Test results reported in US20110159515A1, “COMPOSITIONS AND METHODS FOR THE RAPID GROWTH AND DETECTION OF MICROORGANISMS” (SOLUS SCIENTIFIC SOLUTIONS LIMITED, priority 2008, published 2011).

Assays:
S. aberdeen = test: Direct binding Salmonella assay (chemiluminescence immunosorbent)
L. innocua = test: as above; conditions: 10^6 L. innocua
Protocol: The sample was heated to 100° C. for 5 minutes and allowed to cool. One hundred microlitres of each test sample was added directly to a well of a solid white 96 well high binding microtitre plate (Greiner Bio One) and incubated at 37° C. for 30 minutes. During incubation, the lipid A portion of the LPS binds to the surface of the plate via non-covalent hydrophobic interactions (FIG. 1a (1), FIG. 1b(1)).
The final concentration of antibody per well was 50 ng. The plate-bound sample (Salmonella LPS/core oligosaccharide) and antibody were incubated in the coated wells for 30 minutes as 37° C. Following incubation, plates were washed three times in wash buffer and pat dried prior to detection (FIG. 1a(2), FIG. 1b(2)).
When the anti-Salmonella is directly labelled with acridinium ester, plates were placed into a luminometer. 30 μl of trigger solution A and 60 μl of trigger solution B was added to each well of the microtitre plate to initiate light output from conjugated acridinium ester (FIG. 1a(3)). The luminometer settings were as follows:
When the anti-Salmonella antibody is not labelled, a second binding member, a goat anti-mouse IgG2b conjugate is used. Post column IgG2b was diluted 1:100 in a diluent comprising 3% (w/v) non-fat milk powder and 0.05% (v/v) Tween 20 and 100 ul of this solution was added to each well of the plate (FIG. 1b(3)). Following incubation at 37° C. for 60 minutes the plate was washed four times in wash buffer, dried and read as above (FIG. 1b(4)).
Monoclonal antibody (1:100 dilution) was incubated with either Salmonella or Listeria to determine optimum incubation times:
Monoclonal antibody (1:200 dilution) was incubated with either Salmonella or Listeria to determine optimum incubation times: […]

## CCCCCCCCCCCCOS(=O)(=O)[O-].[Na+] [SDS, sodium dodecyl sulphate]
S. aberdeen; 0.4% SDS, conjugate 1:100, 10^4 S. aberdeen, white plate, Lucy I
  signal, direct binding Salmonella assay: 29,127 ± 2,516
S. aberdeen; 0.4% SDS, conjugate 1:100, 10^5 S. aberdeen, white plate, Lucy I
  signal, direct binding Salmonella assay: 199,287 ± 67,462
S. aberdeen; 0.4% SDS, conjugate 1:100, 10^6 S. aberdeen, white plate, Lucy I
  signal, direct binding Salmonella assay: 398,979 ± 44,871
S. aberdeen; 0.4% SDS, conjugate 1:100, Peptone, white plate, Lucy I
  signal, direct binding Salmonella assay: 3,499 ± 569
S. aberdeen; 0.5% (w/v) SDS (first block), conjugate 1:100, 2.5 × 10^4 S. aberdeen, black and white plates
  signal, direct binding Salmonella assay: 1094 ± 156
S. aberdeen; 0.5% (w/v) SDS (first block), conjugate 1:100, 5 × 10^3 S. aberdeen, black and white plates
  signal, direct binding Salmonella assay: 623 ± 9
S. aberdeen; 0.5% (w/v) SDS (first block), conjugate 1:100, 5 × 10^4 S. aberdeen, black and white plates
  signal, direct binding Salmonella assay: 1,826 ± 166
S. aberdeen; 0.5% (w/v) SDS (first block), conjugate 1:100, 10^4 S. aberdeen, black and white plates
  signal, direct binding Salmonella assay: 796 ± 23
S. aberdeen; 0.5% (w/v) SDS (first block), conjugate 1:100, 10^5 S. aberdeen, black and white plates
  signal, direct binding Salmonella assay: 2,259 ± 103
S. aberdeen; 0.5% (w/v) SDS (first block), conjugate 1:100, 10^6 S. aberdeen, black and white plates
  signal, direct binding Salmonella assay: 16,959 ± 360^
S. aberdeen; 0.5% (w/v) SDS (first block), conjugate 1:100, Peptone, black and white plates
  signal, direct binding Salmonella assay: 705 ± 97
S. aberdeen; 0.5% (w/v) SDS, conjugate 1:50, Peptone, black and white plate, tube luminometer
  signal, direct binding Salmonella assay: 1198 ± 112
S. aberdeen; 0.5% (w/v) SDS, conjugate 1:50, S. aberdeen 2.5 × 10^4, black and white plate, tube luminometer
  signal, direct binding Salmonella assay: 6697 ± 1676
S. aberdeen; 0.5% (w/v) SDS, conjugate 1:50, S. aberdeen 5 × 10^3, black and white plate, tube luminometer
  signal, direct binding Salmonella assay: 1622 ± 21
S. aberdeen; 0.5% (w/v) SDS, conjugate 1:50, S. aberdeen 5 × 10^4, black and white plate, tube luminometer
  signal, direct binding Salmonella assay: 12,231 ± 723^
S. aberdeen; 0.5% (w/v) SDS, conjugate 1:50, S. aberdeen 10^4, black and white plate, tube luminometer
  signal, direct binding Salmonella assay: 3199 ± 735
S. aberdeen; 0.5% (w/v) SDS, conjugate 1:50, S. aberdeen 10^5, black and white plate, tube luminometer
  signal, direct binding Salmonella assay: 22,245 ± 529^
S. aberdeen; 0.5% (w/v) SDS, conjugate 1:50, S. aberdeen 10^6, black and white plate, tube luminometer
  signal, direct binding Salmonella assay: 59,070 ± 1216
S. aberdeen; 0.5% SDS (second block), conjugate 1:100, 2.5 × 10^4 S. aberdeen, black and white plates
  signal, direct binding Salmonella assay: 1,265 ± 46^
S. aberdeen; 0.5% SDS (second block), conjugate 1:100, 5 × 10^3 S. aberdeen, black and white plates
  signal, direct binding Salmonella assay: 748 ± 4
S. aberdeen; 0.5% SDS (second block), conjugate 1:100, 10^4 S. aberdeen, black and white plates
  signal, direct binding Salmonella assay: 908 ± 10
S. aberdeen; 0.5% SDS (second block), conjugate 1:100, 10^5 S. aberdeen, black and white plates
  signal, direct binding Salmonella assay: 3,947 ± 494
S. aberdeen; 0.5% SDS (second block), conjugate 1:100, 10^6 S. aberdeen, black and white plates
  signal, direct binding Salmonella assay: 26,621 ± 843^
S. aberdeen; 0.5% SDS (second block), conjugate 1:100, Peptone, black and white plates
  signal, direct binding Salmonella assay: 631 ± 38
S. aberdeen; 0.5% SDS, 10^1 bacteria (species not given)
  signal, release and detection of core oligosaccharide: 9918 relative light units
S. aberdeen; 0.5% SDS, 10^2 bacteria (species not given)
  signal, release and detection of core oligosaccharide: 9987 relative light units
S. aberdeen; 0.5% SDS, 10^3 bacteria (species not given)
  signal, release and detection of core oligosaccharide: 30399 relative light units
S. aberdeen; 0.5% SDS, 10^5 bacteria (species not given)
  signal, release and detection of core oligosaccharide: 959119 relative light units
S. aberdeen; 0.5% SDS, 10^6 bacteria (species not given)
  signal, release and detection of core oligosaccharide: 884352 relative light units
S. aberdeen; 0.5% SDS, conjugate 1:100, 2.5 × 10^4 S. aberdeen, white plate, Lucy I
  signal, direct binding Salmonella assay: 95,766 ± 6,186
S. aberdeen; 0.5% SDS, conjugate 1:100, 5 × 10^3 S. aberdeen, white plate, Lucy I
  signal, direct binding Salmonella assay: 24,984 ± 1,727
S. aberdeen; 0.5% SDS, conjugate 1:100, 5 × 10^4 S. aberdeen, white plate, Lucy I
  signal, direct binding Salmonella assay: 95,766 ± 6,186
S. aberdeen; 0.5% SDS, conjugate 1:100, 10^4 S. aberdeen, white plate, Lucy I
  signal, direct binding Salmonella assay: 46,273 ± 2,310
S. aberdeen; 0.5% SDS, conjugate 1:100, 10^5 S. aberdeen, white plate, Lucy I
  signal, direct binding Salmonella assay: 166,049 ± 288
S. aberdeen; 0.5% SDS, conjugate 1:100, 10^6 S. aberdeen, white plate, Lucy I
  signal, direct binding Salmonella assay: 374,007 ± 24,114
S. aberdeen; 0.5% SDS, conjugate 1:100, Peptone, black and white plate, tube luminometer
  signal, direct binding Salmonella assay: 974 ± 107
S. aberdeen; 0.5% SDS, conjugate 1:100, Peptone, white plate, Lucy I
  signal, direct binding Salmonella assay: 3,103 ± 267
S. aberdeen; 0.5% SDS, conjugate 1:100, S. aberdeen 2.5 × 10^4, black and white plate, tube luminometer
  signal, direct binding Salmonella assay: 3933 ± 379
S. aberdeen; 0.5% SDS, conjugate 1:100, S. aberdeen 5 × 10^3, black and white plate, tube luminometer
  signal, direct binding Salmonella assay: 1209 ± 66
S. aberdeen; 0.5% SDS, conjugate 1:100, S. aberdeen 5 × 10^4, black and white plate, tube luminometer
  signal, direct binding Salmonella assay: 8721 ± 63
S. aberdeen; 0.5% SDS, conjugate 1:100, S. aberdeen 10^4, black and white plate, tube luminometer
  signal, direct binding Salmonella assay: 1606 ± 243
S. aberdeen; 0.5% SDS, conjugate 1:100, S. aberdeen 10^5, black and white plate, tube luminometer
  signal, direct binding Salmonella assay: 15,009 ± 871^
S. aberdeen; 0.5% SDS, conjugate 1:100, S. aberdeen 10^6, black and white plate, tube luminometer
  signal, direct binding Salmonella assay: 40,190 ± 783^
S. aberdeen; 0.5% SDS, conjugate 1:150, Peptone, black and white plate, tube luminometer
  signal, direct binding Salmonella assay: 998 ± 103
S. aberdeen; 0.5% SDS, conjugate 1:150, S. aberdeen 2.5 × 10^4, black and white plate, tube luminometer
  signal, direct binding Salmonella assay: 1615 ± 132
S. aberdeen; 0.5% SDS, conjugate 1:150, S. aberdeen 5 × 10^3, black and white plate, tube luminometer
  signal, direct binding Salmonella assay: 975 ± 42
S. aberdeen; 0.5% SDS, conjugate 1:150, S. aberdeen 5 × 10^4, black and white plate, tube luminometer
  signal, direct binding Salmonella assay: 6576 ± 549
S. aberdeen; 0.5% SDS, conjugate 1:150, S. aberdeen 10^4, black and white plate, tube luminometer
  signal, direct binding Salmonella assay: 1415 ± 132
S. aberdeen; 0.5% SDS, conjugate 1:150, S. aberdeen 10^5, black and white plate, tube luminometer
  signal, direct binding Salmonella assay: 12,817 ± 975^
S. aberdeen; 0.5% SDS, conjugate 1:150, S. aberdeen 10^6, black and white plate, tube luminometer
  signal, direct binding Salmonella assay: 31,571 ± 2
L. innocua; 0.1% SDS
  signal, release and detection of core oligosaccharide: 7863 relative light units
L. innocua; 0.5% SDS
  signal, release and detection of core oligosaccharide: 8051 relative light units
